This is an account of results in article PMC10341634, “Vasodilating Effects of Antispasmodic Agents and Their Cytotoxicity in Vascular Smooth Muscle Cells and Endothelial Cells—Potential Application in Microsurgery” (International Journal of Molecular Sciences, 2023).

The term IC50 denotes the concentration at which inhibition is half-maximal.

Read-outs that look alike come from different tables or passages of the source.

The test system of data set [1] is rat smooth muscle cells (RSMCs). In words: cells. The procedure:
Rat smooth muscle cells were cultured in DMED:F12 (Lonza, Besel, Switzerland) containing 10% fetal bovine serum, 1% penicillin/streptomycin solution (GA-1000; Lonza, Basel, Switzerland), and 1% stable glutamine (Wako, Tokyo, Japan) at 37 °C in a 5% CO2 incubator. The medium was changed every three days. Once the adherent cells reached 70–80% subconfluence, they were detached from the dish using Accutase (Nacalai Tesque, Kyoto, Japan). The cell suspension was diluted with DMED:F12 (+FBS) and adjusted to a concentration of 5 × 10^4 cells/mL, and then 100 μL of the suspension was seeded into each well of a 96-well dish (Nunc™ MicroWell™ 96-Well, Nunclon Delta-Treated, Flat-Bottom Microplate, Thermo Fisher, Waltham, MA, USA) and incubated for two days at 37 °C in a 5% CO2 incubator. Passage 6 smooth muscle cells were used, and five 96-well plates were prepared.
(§1) IC50 is the drug concentration at which half of the cells undergo cell death; it serves as an indicator of cellular toxicity. […] IC50 values were measured using the GloMax® Navigator System (Promega, Madison, WI, USA). The test compounds were diluted in the culture medium and stored in an incubator until use. […] For each test compound, a control and 11 different concentrations were prepared, and the cytotoxicity after the addition of the compounds was examined. The RealTime-GloTM MT Cell Viability Assay kit (Promega, cat#G9711, USA) was used, and the substrate and Nano-luc were added to the medium in each well of a 96-well plate seeded with RSMCs and HCAECs, with 50 μL per well. The plate was incubated for 1–3 h in the incubator. Then, 50 μL of each prepared test compound was added to the plate. The IC50 values were measured using GloMax at 1, 5, 10, 30, and 60 min after the addition of the test compounds, and cytotoxicity was evaluated.

Data set [2] deals with rat testicular vasculature. More on the design: method as in doi:10.1007/BF00585581. The conditions noted are these: local administration after epinephrine-induced vasoconstriction; cited from earlier work.
In data set [3] the test system is human coronary artery endothelial cells (HCAECs). Description: cells. Here is the method:
Human coronary artery ECs were cultured in a collagen-coated dish (AGC TECHNO GLASS Co., Shizuoka, Japan) in EBM-2 (CC-3156, Lonza, Besel, Switzerland) containing Supplements and Growth Factors (CC-4176, Lonza, Besel, Switzerland). The cells were cultured at 37 °C in a 5% CO2 incubator. The medium was changed every three days until the adherent cell monolayer reached 70–80% subconfluence. Subsequently, cells were detached from the dish using Accutase. The cell suspension was diluted with medium, adjusted to a concentration of 5 × 10^4 cells/mL, and seeded into a 96-well plate. The dish was incubated for two days at 37 °C in a 5% CO2 incubator. En ECs at passages 5–6 were used, and five 96-well plates were prepared.
as §1

For data set [4] the following is noted: cited from earlier work.
Data set [5] has as its system rat abdominal aorta. In words: Wire myograph vasodilation of norepinephrine-contracted rat abdominal aorta rings. The conditions noted are these: for concentration achieving maximal vasodilation effect (approximately 100% relaxation): 10 min after administration, contraction induced by 5 μM norepinephrine. Here is the method: Consistent with our previous study, we applied a 1 gram-force (gf) load to approximately 1 mm cross-sectional slices of the rat abdominal aorta. Subsequently, we induced contraction by adding 5 μM norepinephrine. Various vasodilators were then added, and the concentration at which the vessels relaxed back to 1 gf was considered the concentration required for 100% relaxation.
A wire myograph system (Bio Research Co., Osaka, Japan) was used, as previously reported by Ogawa et al.. The rat abdominal aortae were cut into rings and manipulated using two L-shaped hooks. One hook was fixed, and the other was connected to an amplifier to measure the force exerted on the pulled vessel in grams. The rats were deeply anesthetized, and the abdominal aorta was dissected. The excised vessels were immersed in Ringer solution (NaCl 118 mM, KCl 4.7 mM, CaCl2/2H2O 2.5 mM, MgSO4/7H2O 1.2 mM, KH2PO4 1.2 mM, NaHCO3 25 mM, C6H12O6 11 mM, Na2EDTA 0.5 mM). The rat aorta was then sliced into approximately 1 mm-wide rings and hooked onto L-shaped hooks. The chamber was filled with 3 mL of Krebs-Ringer solution, and a gas mixture of 95% O2 and 5% CO2 was bubbled through. The chamber was maintained at 37 °C.
Once the wire myograph system was initiated, the wire was moved, and a load was exerted on the hook-attached chamber. The applied tensile force, amplified by a transducer and PowerLab (ADInstruments, Bella Vista, New South Wales, Australia), was continuously recorded as gram force using LabChart (ADInstruments, Bella Vista, New South Wales, Australia). The hook is pulled to apply a load of up to 1 gf. A resting period of approximately 10 min was required for the gradual relaxation of the vessel under tension from the hook. When relaxation reached a plateau, norepinephrine was added to the solution to achieve a final concentration of 5 μM. This causes the vessel to contract, increasing the load on the artery and surpassing 1 gf on the myograph recording. […] The reduction in load on the vessel in terms of gf was assessed to determine the relaxation rate and concentration (Figure 4). […]

Details of data set [6]: method as in PMID 25357051. The conditions noted are these: cited from earlier work.
The conditions of data set [7]: 4% lidocaine administered locally; humans; cited from earlier work.
For data set [8], the system named is NE-dependent contractions. The conditions noted are these: cited from earlier work.
For data set [9] the following is noted: 1% lidocaine; cited from earlier work.
The subject of data set [10] is rat abdominal aorta. As to conditions: cited from earlier work.
Where [11] appears, read: Rattus norvegicus, 1 min, read-out: IC50 (cell viability), RSMCs, 1 min after addition.
Setting [12] is: Rattus norvegicus, 5 min, read-out: IC50 (cell viability), RSMCs, 5 min after addition.
[13] abbreviates: Rattus norvegicus, 10 min, read-out: IC50 (cell viability), RSMCs, 10 min after addition.
[14] abbreviates: Rattus norvegicus, 0.5 h, read-out: IC50 (cell viability), RSMCs, 30 min after addition.
The mark [15] stands for this setting: Rattus norvegicus, 1 h, read-out: IC50 (cell viability), RSMCs, 60 min after addition.
Where [16] appears, read: read-out: IC50 (cell viability), RSMCs, 1 min after addition.
[17] abbreviates: Homo sapiens, Endothelial cell, 1 min, read-out: IC50 (cell viability).
Where [18] appears, read: Homo sapiens, Endothelial cell, 5 min, read-out: IC50 (cell viability).
Setting [19] is: Homo sapiens, Endothelial cell, 10 min, read-out: IC50 (cell viability).
The mark [20] stands for this setting: Homo sapiens, Endothelial cell, 0.5 h, read-out: IC50 (cell viability).
Where [21] appears, read: Homo sapiens, Endothelial cell, 1 h, read-out: IC50 (cell viability).

For the compound `Cc1ccc(N(CC2=NCCN2)c2cccc(O)c2)cc1` [Phentolamine, phentolamine], the cellular toxicity entry in data set [1] is given as “No cellular toxicity was observed”. In [2], the “onset of the effect” value is on record as no more than 2 min and the sustained effect result was “up to 20 min”. Also, in data set [3], the cellular toxicity result was “No cellular toxicity was observed”.

Consider `Cc1[nH]c(=O)c(C#N)cc1-c1ccc2nccn2c1` [Olprinone, olprinone], for which the cellular toxicity result in [1] and in data set [3] was “No cellular toxicity was observed” throughout.

Regarding `COc1ccc(Cc2nccc3cc(OC)c(OC)cc23)cc1OC` [Papaverine, papaverine], the IC50 in data set [1] (setting [11]) stood at 100 µM; in data set [1] (setting [12]) it was 118 µM; in data set [1] (setting [13]), 13.5 µM; in data set [1] (setting [14]) it was 15.9 µM; in [1] (setting [15]) it was 1.5 µM; in [1] (setting [16]), 97 µM. Moreover, the IC50 stood at 97 µM in data set [1] (read-out: IC50 (cell viability), RSMCs, 1 min after addition, listed as papaverine hydrochloride); 1.46 µM in data set [1] (read-out: IC50 (cell viability), RSMCs, 60 min after addition); 56 µM in data set [3] (setting [17]); 4.04 µM in data set [3] (setting [18]); 4.29 µM in [3] (setting [19]); 5 µM in [3] (setting [20]). In addition, the IC50 in data set [3] (setting [21]) stood at 6.48 µM. The “time until effects become evident” value in data set [4] (after local administration) was 1 to 5 min. Moreover, the “concentration achieving maximal vasodilation effect (approximately 100% relaxation)” value in the data set on rat abdominal aorta [5] was found to be 0.18 mM. Besides, the “pH of clinically used concentrations” value in data set [6] is recorded as 3–4.5.

Regarding `O=[N+]([O-])OCC(CO[N+](=O)[O-])O[N+](=O)[O-]` [Nitroglycerine, nitroglycerin], the IC50 in data set [1] (setting [14]) turned out to be 130 µM; in [1] (setting [15]), 109 µM; in data set [1] (read-out: IC50 (cell viability), RSMCs, 30 min after addition) it was 134 µM; in data set [3] (Homo sapiens, Endothelial cell, 10 min, read-out: IC50 (cell viability), HCAECs, 10 min after addition) it was 35 µM; in data set [3] (Homo sapiens, Endothelial cell, 0.5 h, read-out: IC50 (cell viability), HCAECs, 30 min after addition) it was 38 µM; in data set [3] (Homo sapiens, Endothelial cell, 1 h, read-out: IC50 (cell viability), HCAECs, 60 min after addition), 38.8 µM. For the same compound, the 50% inhibitory concentration (IC50) in data set [3] (read-out: IC50 (cell viability), HCAECs, 10 min after addition) is 35.1 µM. Moreover, the “concentration achieving maximal vasodilation effect (approximately 100% relaxation)” value in the data set with rat abdominal aorta [5] came to 0.022 mM. Further, the relaxation entry with rat abdominal aorta [5] (at the investigated concentrations, 10 min, 5 μM norepinephrine) was “approximately 50%”.

As for `CCN(CC)CC(=O)Nc1c(C)cccc1C` [Lidocaine, lidocaine], the IC50 in data set [1] (setting [11]) came out at 55300 µM; in [1] (setting [12]) it was 27900 µM; in data set [1] (setting [13]), 16700 µM; in data set [1] (setting [14]), 10100 µM; in data set [1] (setting [15]), 7100 µM; in data set [1] (setting [16]), 55300 µM. The IC50 in data set [1] (read-out: IC50 (cell viability), RSMCs, 5 min after addition) came out at 27900 µM; in [1] (read-out: IC50 (cell viability), RSMCs, 10 min after addition), 16700 µM; in data set [3] (setting [17]), 24400 µM; in [3] (setting [18]) it was 16800 µM; in [3] (setting [19]) it was 13500 µM; in data set [3] (setting [20]), 10300 µM. In data set [3] (setting [21]), the concentration for half-maximal inhibition (IC50) came out at 7640 µM. In addition, the “IC50 expressed as percent concentration” value in data set [1] (SMC, 1-min post-dose) is listed as 1.58%; in data set [3] (EC, 1-min post-dose), 0.70%. In addition, the “peak concentration measured in peripheral blood” value in data set [7] is 1.5 µg/mL. The “duration of antispasmodic effect” value in [4] is 10 to 20 min. The “onset of antispasmodic effect” value in [4] is 45 to 90 s. Also, the “high concentrations relieving NE-dependent contractions and increasing blood flow” value in data set [8] was 4.5 to 15 mM. For the same compound, the “low concentrations causing vasoconstriction” value in [8] was 15 to 1500 µM. Besides, in data set [9], the osmotic pressure is 282 mOsm/L. Moreover, in the data set with rat abdominal aorta [10] (1% lidocaine for 10 min), the relaxation entry was “approximately 100%”. In addition, the “concentration achieving maximal vasodilation effect (approximately 100% relaxation)” value in the data set on rat abdominal aorta [10] (10 min after administration, 5 μM norepinephrine, lidocaine data from previous research) is given as 35 mM.
